Assay results taken from patent publication US4145554A, “3-Nitropyrazole derivatives” (Eli Lilly and Company, priority 1977, dated 1979).
Converted amounts (≈) assume the structure as drawn. Read-outs that look alike come from different tables or passages of the source.

Experiments:
Streptococcus sp. 80 = assay: in vitro tube dilution test (MIC); type: cell-based; settings: Streptococcus sp. 80, tube dilution; read-out: MIC
Description: (§1) Other compounds of our invention have also been tested in the tube dilution test and shown to have in vitro activity against a number of microorganisms. The table below reports tests of a number of exemplary compounds against exemplary microorganisms. The compounds are identified by their numbers in the listing above. The data are reported as the MIC in micrograms per milliliter against the named exemplary microorganisms.

Salmonella dublin = assay: in vitro tube dilution test (MIC); type: cell-based; settings: Salmonella enterica; Salmonella dublin, tube dilution; read-out: MIC
Description: (§2) The other preferred compounds of our invention have also been thoroughly tested in the in vitro tube dilution test.
as §1

Vibrio coli 3811 = assay: in vitro tube dilution test (MIC); type: cell-based; settings: Campylobacter coli; Vibrio coli 3811, tube dilution; read-out: MIC
Description: as §2, §1

[1] = tested on: Staphylococcus aureus sp. 1130; assay: in vitro tube dilution test (MIC); type: cell-based; settings: Staphylococcus aureus sp. 1130, tube dilution; read-out: MIC
Description: as §2, §1

Pasteurella multocida = assay: in vitro tube dilution test (MIC); type: cell-based; settings: tube dilution, read-out: MIC
Description: (§3) Our compound, 1-(2-hydroxyethyl)-3-nitro-4-pyrazolecarboxamide, has been extensively tested in vitro to determine the range of microorganisms against which it is active. The table of data below reports the minimum inhibitory concentration (MIC) at which the compound is effective in controlling a variety of microorganisms in a standard tube dilution test system. The MIC is reported as micrograms of compound per milliliter.
as §2, §1

Salmonella typhimurium = assay: Salmonellosis in chickens, single injection to day-old chicks; type: in vivo; settings: for responders at 60 mg/kg: Salmonella enterica, TYPHIMURIUM, 168 h
Description: A number of our 3-nitropyrazoles have been tested against an induced infection of Salmonella typhimurium in day-old chicks. The test was conducted by administering a single injection of 60 mg./kg. of the compounds to each of five chicks. The following day, the chicks were challenged by the subcutaneous injection of a dispersion of S. typhimurium organisms sufficient to kill most or all of the untreated control chicks.
Some of the compounds were tested more than once, in which instances the data are reported as the total survivors from the multiple treatment groups. Untreated, challenged control groups of chicks were tested together with each batch of groups of chicks to which test compounds were administered. Since the mortality of the untreated control chicks varied somewhat from one group of tests to another, results of the untreated control groups are reported below with each test.

Mycoplasma gallisepticum = assay: in vitro tube dilution test (MIC); type: cell-based; settings: Mycoplasmoides gallisepticum; Mycoplasma gallisepticum, tube dilution; read-out: MIC
Description: as §3, §1

Escherichia coli = assay: in vitro tube dilution test (MIC); type: cell-based; settings: tube dilution, read-out: MIC
Description: as §3, §1

Streptococcus pyogenes = assay: Tests in mice, Streptococcus pyogenes infection; type: in vivo; settings: S. pyogenes, two subcutaneous doses of 83 mg./kg., 1 and 5 hours
Description: (§4) Groups of laboratory mice were inoculatd with E. coli or with Streptococcus pyogenes. The 3-nitropyrazoles were administered in two different modes to the infected mice. In one group of tests, the compound was administered in two subcutaneous doses of 83 mg./kg. each, given 1 and 5 hours after the mice were inoculated with the organism. The mice were observed, and the results reported below as the number of days the treated mice survived the challenge.
(§5) In the other group of tests, the dose of each compound which allowed 50 percent of the treated mice to survive the challenge was determined. Again, the compound was administered in subcutane divided doses, 1 and 5 hours post-inoculation.

E. coli = assay: Tests in mice, E. coli infection; type: in vivo; settings: two subcutaneous doses of 83 mg./kg., 1 and 5 hours
Description: as §4, §5

[2] = single injection of 60 mg./kg., seven days, read-out: Survival (converted)

| Compound | MIC (Streptococcus sp. 80) | MIC (Salmonella dublin) | MIC (Vibrio coli 3811) | MIC [1] | MIC (Pasteurella multocida) | responders at 60 mg/kg (Salmonella typhimurium; [2]) | MIC (Mycoplasma gallisepticum) | MIC (Escherichia coli) | chicks protected of the 5-bird treated group (Salmonella typhimurium; salmonella challenge) | Days Survived (Streptococcus pyogenes) | Days Survived (E. coli) | responders at 60 mg/kg (Salmonella typhimurium; read-out: Survival) |
| --- | --- | --- | --- | --- | --- | --- | --- | --- | --- | --- | --- | --- |
| CS(=O)(=O)CCn1cc(C(N)=O)c([N+](=O)[O-])n1 [Compound 66, 1-[2-(methylsulfonyl)ethyl]-3-nitro-4-pyrazolecarboxamide] | 25 µg/mL (≈ 95.3 µM) | > 50 µg/mL | > 50 µg/mL | 25 µg/mL (≈ 95.3 µM) | 12.5 µg/mL (≈ 47.7 µM) | 40% | 50 µg/mL (≈ 191 µM) | 50 µg/mL (≈ 191 µM) |  |  |  |  |
| CC=CCn1cc(C(N)=O)c([N+](=O)[O-])n1 [Compound 75, 1-(2-butenyl)-3-nitro-4-pyrazolecarboxamide] | > 50 µg/mL | 25 µg/mL (≈ 119 µM) | 12.5 µg/mL (≈ 59.5 µM) | 12.5 µg/mL (≈ 59.5 µM) | 25 µg/mL (≈ 119 µM) | 60% | > 50 µg/mL | 50 µg/mL (≈ 238 µM) |  |  |  |  |
| CCOC(Cn1cc(C(N)=O)c([N+](=O)[O-])n1)OCC [Compound 82, 1-(2,2-diethoxyethyl)-3-nitro-4-pyrazolecarboxamide] | 50 µg/mL (≈ 184 µM) | 50 µg/mL (≈ 184 µM) | 50 µg/mL (≈ 184 µM) | 50 µg/mL (≈ 184 µM) | 50 µg/mL (≈ 184 µM) | 80% | 25 µg/mL (≈ 91.8 µM) | 50 µg/mL (≈ 184 µM) |  |  |  |  |
| N#Cc1cn(CCCCl)nc1[N+](=O)[O-] [Compound 83, 1-(3-chloropropyl)-3-nitro-4-pyrazolecarbonitrile] | > 50 µg/mL | > 50 µg/mL | 25 µg/mL (≈ 116 µM) | > 50 µg/mL | > 50 µg/mL | 80% | 50 µg/mL (≈ 233 µM) | > 50 µg/mL |  |  |  |  |
| CCOCCn1cc(C#N)c([N+](=O)[O-])n1 [Compound 84, 1-(2-ethoxyethyl)-3-nitro-4-pyrazolecarbonitrile] | 50 µg/mL (≈ 238 µM) | 50 µg/mL (≈ 238 µM) | 25 µg/mL (≈ 119 µM) | 50 µg/mL (≈ 238 µM) | 25 µg/mL (≈ 119 µM) | 80% | 50 µg/mL (≈ 238 µM) | 50 µg/mL (≈ 238 µM) |  |  |  |  |
| CCCCNC(=O)c1cn(CCO)nc1[N+](=O)[O-] [Compound 85, N-butyl-1-(2-hydroxyethyl)-3-nitro-4-pyrazolecarboxamide] | > 50 µg/mL | > 50 µg/mL | 50 µg/mL (≈ 195 µM) | > 50 µg/mL | > 50 µg/mL |  | 3.12 µg/mL (≈ 12.2 µM) | > 50 µg/mL | at least three chicks of the 5-bird treated group |  |  |  |
| CC(C)NC(=O)c1cn(CCO)nc1[N+](=O)[O-] [Compound 88, 1-(2-hydroxyethyl)-N-isopropyl-3-nitro-4-pyrazolecarboxamide] | > 50 µg/mL | > 50 µg/mL | 50 µg/mL (≈ 206 µM) | > 50 µg/mL | 6.25 µg/mL (≈ 25.8 µM) |  | 3.12 µg/mL (≈ 12.9 µM) | 50 µg/mL (≈ 206 µM) |  | 2.0 days | 4.8 days |  |
| NC(=O)OCCn1cc(C(N)=O)c([N+](=O)[O-])n1 [Compound 93, [2-(4-carbamoyl-3-nitropyrazol-1-yl)ethyl] carbamate] | 6.25 µg/mL (≈ 25.7 µM) | 6.25 µg/mL (≈ 25.7 µM) | 50 µg/mL (≈ 206 µM) | 3.12 µg/mL (≈ 12.8 µM) | < 1.56 µg/mL |  | 12.5 µg/mL (≈ 51.4 µM) | 12.5 µg/mL (≈ 51.4 µM) |  |  |  | 100% |
| NC(=O)c1cn(CCBr)nc1[N+](=O)[O-] [Compound 96, 1-(2-bromoethyl)-3-nitropyrazole-4-carboxamide] | > 50 µg/mL | 3.12 µg/mL (≈ 11.9 µM) | 25 µg/mL (≈ 95 µM) | < 1.56 µg/mL | 12.5 µg/mL (≈ 47.5 µM) | 100% | 25 µg/mL (≈ 95 µM) | 6.25 µg/mL (≈ 23.8 µM) |  |  |  |  |
